Source: patent publication US8809265B2, “Methods for treating HCV” (AbbVie Inc., priority 2011, dated 2014)

Experiment: bioequivalence of solid formulations of Compound 2
Format: in vivo
Settings: 250 mg in improved solid formulation (increased binder, e.g. copovidone) versus 400 mg in original formulation
From the text: Accordingly, in one aspect, the present technology features a method of treating HCV infection, comprising administering to a patient in need thereof an effective amount of a combination of two or more DAAs. […] The DAAs can be administered at the same or different dosing frequencies. The patient being treated can be a treatment naïve patient, a treatment experienced patient, including, but not limited to, a relapser, an interferon partial responder, or an interferon non-responder; or a patient unable to take interferon. The patient may be infected with, for example and without limitation, HCV genotype 1, such as HCV genotype 1a or HCV genotype 1b; or HCV genotype 2 or 3. The treatment according to this aspect of the technology may also be effective against other HCV genotypes. The DAAs can be administered around the same time or at different times, and can be co-formulated in a single formulation or formulated in different compositions. Each DAA can be selected from HCV protease inhibitors, HCV polymerase inhibitors, or HCV NS5A inhibitors. […]

bioequivalence of formulations: bioequivalent
Compound: COc1c(-c2ccc3cc(NS(C)(=O)=O)ccc3c2)cc(-n2ccc(=O)[nH]c2=O)cc1C(C)(C)C [Compound 2, N-(6-(3-tert-butyl-5-(2,4-dioxo-3,4-dihydropyrimidin-1(2H)-yl)-2-methoxyphenyl)naphthalen-2-yl)methanesulfonamide]
